Earlier results, collected in patent US9750700B2 (Natco Pharma Limited, priority 2011, dated 2017).

Settings: crystalline form of Imatinib mesylate

In the case of `CS(=O)(=O)O.Cc1ccc(NC(=O)c2ccc(CN3CCN(C)CC3)cc2)cc1Nc1nccc(-c2cccnc2)n1` [α-crystalline form], the hygroscopicity is listed as “hygroscopic”.
